According to ChEMBL document CHEMBL2434896, “Carbonic anhydrase inhibitors. Synthesis of heterocyclic 4-substituted pyridine-3-sulfonamide derivatives and their inhibition of the human cytosolic isozymes I and II and transmembrane tumor-associated isozymes IX and XII” (Eur J Med Chem, 2013):
Calls of active or inactive are those of the source. The rule behind the calls is not given here.

Assays:
[1] = tested on: A549; assay: Growth inhibition of human A549/ATCC cells at 10 uM after 48 hrs by sulforhodamine B assay; type: functional; details: A549, 48 h, read-out: GI
[2] = tested on: U-251; assay: Growth inhibition of human U251 cells at 10 uM after 48 hrs by sulforhodamine B assay; type: functional
[3] = tested on: UO-31; assay: Growth inhibition of human UO31 cells at 10 uM after 48 hrs by sulforhodamine B assay; type: functional; details: UO-31, 48 h, read-out: GI
[4] = tested on: M14; assay: Growth inhibition of human M14 cells at 10 uM after 48 hrs by sulforhodamine B assay; type: functional; details: M14, 48 h, read-out: GI
[5] = tested on: MDA-MB-468; assay: Growth inhibition of human MDA-MB-468 cells at 10 uM after 48 hrs by sulforhodamine B assay; type: functional
[6] = tested on: DU-145; assay: Growth inhibition of human DU145 cells at 10 uM after 48 hrs by sulforhodamine B assay; type: functional
[7] = tested on: MOLT-4; assay: Growth inhibition of human MOLT4 cells at 10 uM after 48 hrs by sulforhodamine B assay; type: functional; details: MOLT-4, 48 h, read-out: GI
[8] = tested on: HCT-15; assay: Growth inhibition of human HCT15 cells at 10 uM after 48 hrs by sulforhodamine B assay; type: functional; details: HCT-15, 48 h, read-out: GI
[9] = tested on: IGROV-1; assay: Growth inhibition of human IGROV1 cells at 10 uM after 48 hrs by sulforhodamine B assay; type: functional
[10] = tested on: MDA-MB-435; assay: Growth inhibition of human MDA-MB-435 cells at 10 uM after 48 hrs by sulforhodamine B assay; type: functional
[11] = tested on: K562; assay: Growth inhibition of human K562 cells at 10 uM after 48 hrs by sulforhodamine B assay; type: functional
[12] = tested on: SNB-75; assay: Growth inhibition of human SNB75 cells at 10 uM after 48 hrs by sulforhodamine B assay; type: functional; details: SNB-75, 48 h, read-out: GI
[13] = tested on: OVCAR-4; assay: Growth inhibition of human OVCAR4 cells at 10 uM after 48 hrs by sulforhodamine B assay; type: functional
[14] = tested on: PC-3; assay: Growth inhibition of human PC3 cells at 10 uM after 48 hrs by sulforhodamine B assay; type: functional; details: PC-3, 48 h, read-out: GI
[15] = tested on: HCT-116; assay: Growth inhibition of human HCT116 cells at 10 uM after 48 hrs by sulforhodamine B assay; type: functional
[16] = tested on: SK-MEL-5; assay: Growth inhibition of human SK-MEL-5 cells at 10 uM after 48 hrs by sulforhodamine B assay; type: functional
[17] = tested on: NCI-H226; assay: Growth inhibition of human NCI-H226 cells at 10 uM after 48 hrs by sulforhodamine B assay; type: functional
[18] = tested on: 786-0; assay: Growth inhibition of human 786-0 cells at 10 uM after 48 hrs by sulforhodamine B assay; type: functional
[19] = tested on: RPMI-8226; assay: Growth inhibition of human RPMI8226 cells at 10 uM after 48 hrs by sulforhodamine B assay; type: functional
[20] = tested on: NCI-H322M; assay: Growth inhibition of human NCI-H322M cells at 10 uM after 48 hrs by sulforhodamine B assay; type: functional
[21] = tested on: MDA-MB-231; assay: Growth inhibition of human MDA-MB-231 cells at 10 uM after 48 hrs by sulforhodamine B assay; type: functional
[22] = tested on: ACHN; assay: Growth inhibition of human ACHN cells at 10 uM after 48 hrs by sulforhodamine B assay; type: functional
[23] = tested on: HT-29; assay: Growth inhibition of human HT-29 cells at 10 uM after 48 hrs by sulforhodamine B assay; type: functional
[24] = tested on: HOP-92; assay: Growth inhibition of human HOP92 cells at 10 uM after 48 hrs by sulforhodamine B assay; type: functional
[25] = tested on: NCI-H522; assay: Growth inhibition of human NCI-H522 cells at 10 uM after 48 hrs by sulforhodamine B assay; type: functional; details: NCI-H522, 48 h, read-out: GI
[26] = tested on: SN12C; assay: Growth inhibition of human SN12C cells at 10 uM after 48 hrs by sulforhodamine B assay; type: functional
[27] = tested on: A498; assay: Growth inhibition of human A498 cells at 10 uM after 48 hrs by sulforhodamine B assay; type: functional; details: A498, 48 h, read-out: GI
[28] = tested on: SF-295; assay: Growth inhibition of human SF295 cells at 10 uM after 48 hrs by sulforhodamine B assay; type: functional
[29] = tested on: SK-OV-3; assay: Growth inhibition of human SKOV3 cells at 10 uM after 48 hrs by sulforhodamine B assay; type: functional
[30] = tested on: NCI-H460; assay: Growth inhibition of human NCI-H460 cells at 10 uM after 48 hrs by sulforhodamine B assay; type: functional
[31] = tested on: CCRF-CEM; assay: Growth inhibition of human CCRF-CEM cells at 10 uM after 48 hrs by sulforhodamine B assay; type: functional
[32] = tested on: SR; assay: Growth inhibition of human SR cells at 10 uM after 48 hrs by sulforhodamine B assay; type: functional; details: read-out: GI
[33] = tested on: T47D; assay: Growth inhibition of human T47D cells at 10 uM after 48 hrs by sulforhodamine B assay; type: functional; details: read-out: GI
[34] = tested on: SK-MEL-28; assay: Growth inhibition of human SK-MEL-28 cells at 10 uM after 48 hrs by sulforhodamine B assay; type: functional, cell-based
[35] = tested on: SW-620; assay: Growth inhibition of human SW620 cells at 10 uM after 48 hrs by sulforhodamine B assay; type: functional
[36] = tested on: SNB-19; assay: Growth inhibition of human SNB19 cells at 10 uM after 48 hrs by sulforhodamine B assay; type: functional; details: SNB-19, 48 h, read-out: GI
[37] = molecular target: Carbonic anhydrase 9 (Homo sapiens, UniProt Q16790); assay: Inhibition of human carbonic anhydrase 9 after 15 mins by stopped flow CO2 hydration assay
[38] = tested on: HOP-62; assay: Growth inhibition of human HOP62 cells at 10 uM after 48 hrs by sulforhodamine B assay; type: functional; details: HOP-62, 48 h, read-out: GI
[39] = tested on: Malme-3M; assay: Growth inhibition of human MALME-3M cells at 10 uM after 48 hrs by sulforhodamine B assay; type: functional
[40] = tested on: SF-539; assay: Growth inhibition of human SF539 cells at 10 uM after 48 hrs by sulforhodamine B assay; type: functional; details: SF-539, 48 h, read-out: GI
[41] = tested on: HL-60(TB); assay: Growth inhibition of human HL-60(TB) cells at 10 uM after 48 hrs by sulforhodamine B assay; type: functional; details: HL-60, 48 h, read-out: GI
[42] = tested on: OVCAR-3; assay: Growth inhibition of human OVCAR3 cells at 10 uM after 48 hrs by sulforhodamine B assay; type: functional
[43] = tested on: KM12; assay: Growth inhibition of human KM12 cells at 10 uM after 48 hrs by sulforhodamine B assay; type: functional; details: KM12, 48 h, read-out: GI
[44] = tested on: TK-10; assay: Growth inhibition of human TK10 cells at 10 uM after 48 hrs by sulforhodamine B assay; type: functional
[45] = tested on: UACC-257; assay: Growth inhibition of human UACC257 cells at 10 uM after 48 hrs by sulforhodamine B assay; type: functional

## NS(=O)(=O)c1cnccc1N1CCN(Cc2ccc3c(c2)OCO3)CC1
[1]
  inhibition of growth at 10 µM: 2%
[2]
  growth inhibition (GI): inactive
[3]
  inhibition of growth at 10 µM: 13%
[4]
  inhibition of growth at 10 µM: 2%
[5]
  growth inhibition (GI): inactive
[6]
  growth inhibition (GI): inactive
[7]
  inhibition of growth at 10 µM: 5%
[8]
  inhibition of growth at 10 µM: 1%
[9]
  growth inhibition (GI): inactive
[10]
  growth inhibition (GI): inactive
[11]
  growth inhibition (GI): inactive
[12]
  inhibition of growth at 10 µM: 9%
[13]
  growth inhibition (GI): inactive
[14]
  inhibition of growth at 10 µM: 1%
[15]
  growth inhibition (GI): inactive
[16]
  growth inhibition (GI): inactive
[17]
  growth inhibition (GI): inactive
[18]
  growth inhibition (GI): inactive
[19]
  growth inhibition (GI): inactive
[20]
  growth inhibition (GI): inactive
[21]
  growth inhibition (GI): inactive
[22]
  growth inhibition (GI): inactive
[23]
  growth inhibition (GI): inactive
[24]
  growth inhibition (GI): inactive
[25]
  inhibition of growth at 10 µM: 2%
[26]
  growth inhibition (GI): inactive
[27]
  inhibition of growth at 10 µM: 10%
[28]
  growth inhibition (GI): inactive
[29]
  growth inhibition (GI): inactive
[30]
  growth inhibition (GI): inactive
[31]
  growth inhibition (GI): inactive
[32]
  inhibition of growth at 10 µM: 9%
[33]
  inhibition of growth at 10 µM: 6%
[34]
  growth inhibition (GI): inactive
[35]
  growth inhibition (GI): inactive
[36]
  inhibition of growth at 10 µM: 3%
[37]
  Ki: 89.4 nM
[38]
  inhibition of growth at 10 µM: 5%
[39]
  growth inhibition (GI): inactive
[40]
  inhibition of growth at 10 µM: 2%
[41]
  inhibition of growth at 10 µM: 7%
[42]
  growth inhibition (GI): inactive
[43]
  inhibition of growth at 10 µM: 1%
[44]
  growth inhibition (GI): inactive
[45]
  growth inhibition (GI): inactive
